Results from the CheMixHub viscosity set.
± gives the uncertainty stated by the source.

Assay: xn = mol fraction of the nth substance listed

CCCCCCCCCCN + C1CCCCC1
303.15 K, 101 kPa
Conditions	viscosity [mPa·s]
x2 = 0.2056	1.562 ± 0.017
x2 = 0.3987	1.361 ± 0.015
x2 = 0.5065	1.239 ± 0.014
x2 = 0.5875	1.159 ± 0.013
x2 = 0.7947	0.9708 ± 0.011

CCCN(CCC)CCC + C1CCCCC1
viscosity [mPa·s], 101 kPa
Conditions	x1 = 0.01088	x1 = 0.02001	x1 = 0.0305	x1 = 0.04057	x1 = 0.05108	x1 = 0.05957	x1 = 0.06928	x1 = 0.07872	x1 = 0.08785
303.15 K	0.8118 ± 0.0056	0.8071 ± 0.0056	0.8005 ± 0.0055	0.7936 ± 0.0055	0.7874 ± 0.0055	0.7784 ± 0.0054	0.7721 ± 0.0054	0.766 ± 0.0054	0.7599 ± 0.0054
313.15 K	0.7082 ± 0.005	0.6992 ± 0.005	0.6899 ± 0.0049	0.6808 ± 0.0049	0.673 ± 0.0049	0.6664 ± 0.0049	0.6605 ± 0.0048	0.6541 ± 0.0048	0.6465 ± 0.0048

CCCN(CCC)CCC + C1COCCO1
Conditions	viscosity [mPa·s]
303.15 K, 101 kPa, x1 = 0.0198	1.045 ± 0.0077

Cc1ccc(C(C)C)c(O)c1 + CC12CCC(CC1)C(C)(C)O2
viscosity [mPa·s], 101.33 kPa
Conditions	x1 = 0.5865	x1 = 0.6068	x1 = 0.6272	x1 = 0.6462	x1 = 0.6661	x1 = 0.6858	x1 = 0.7057
293.15 K	43.71 ± 0.94	45.56 ± 0.98	46.15 ± 0.99	46.86 ± 1	46.28 ± 1	45.95 ± 0.99	44.22 ± 0.95
298.15 K	29.92 ± 0.75	30.8 ± 0.79	31.35 ± 0.79	31.41 ± 0.81	31.27 ± 0.8	30.92 ± 0.8	29.82 ± 0.77

CCN(CC)c1ccccc1 + CC(=O)O
viscosity [mPa·s], 101 kPa
Conditions	298.15 K	318.15 K
x2 = 0.0992	2.081 ± 0.055	1.363 ± 0.036
x2 = 0.1985	2.343 ± 0.062	1.489 ± 0.04
x2 = 0.2959	2.722 ± 0.072	1.597 ± 0.043
x2 = 0.3986	3.462 ± 0.092	1.91 ± 0.051
x2 = 0.5022	4.639 ± 0.12	2.408 ± 0.065
x2 = 0.598	6.4 ± 0.17	3.1 ± 0.084
x2 = 0.7002	9.548 ± 0.25	4.198 ± 0.12
x2 = 0.7469	10.94 ± 0.29	4.721 ± 0.13
x2 = 0.7982	12 ± 0.31	5.159 ± 0.14
x2 = 0.8467	10.95 ± 0.29	4.965 ± 0.14
x2 = 0.9027	6.538 ± 0.17	3.527 ± 0.094

CCOC(=O)CC(=O)OCC + CC(=O)c1ccccc1
viscosity [mPa·s], 101 kPa
Conditions	x1 = 0.0812	x1 = 0.1401	x1 = 0.2516	x1 = 0.3486	x1 = 0.4322	x1 = 0.5248	x1 = 0.6335	x1 = 0.7384	x1 = 0.8256	x1 = 0.9278
303.15 K	1.564 ± 0.034	1.587 ± 0.034	1.626 ± 0.035	1.655 ± 0.036	1.677 ± 0.036	1.697 ± 0.037	1.714 ± 0.037	1.727 ± 0.037	1.732 ± 0.038	1.738 ± 0.038
308.15 K	1.412 ± 0.031	1.43 ± 0.031	1.461 ± 0.032	1.487 ± 0.032	1.506 ± 0.033	1.524 ± 0.033	1.54 ± 0.033	1.55 ± 0.034	1.559 ± 0.034	1.567 ± 0.034
313.15 K	1.315 ± 0.028	1.334 ± 0.029	1.363 ± 0.029	1.384 ± 0.03	1.4 ± 0.03	1.416 ± 0.031	1.43 ± 0.031	1.44 ± 0.031	1.446 ± 0.031	1.454 ± 0.031

ClCCCCl + CC(C)CO
viscosity [mPa·s], 101 kPa
Conditions	x1 = 0.0989	x1 = 0.2041	x1 = 0.3021	x1 = 0.3988	x1 = 0.5019	x1 = 0.602	x1 = 0.704	x1 = 0.8027	x1 = 0.8982
298.15 K	2.523 ± 0.021	1.948 ± 0.016	1.604 ± 0.013	1.373 ± 0.011	1.194 ± 0.0095	1.078 ± 0.0086	1.001 ± 0.008	0.9476 ± 0.0078	0.9412 ± 0.0078
313.15 K	1.637 ± 0.016	1.327 ± 0.012	1.127 ± 0.0099	1.001 ± 0.0086	0.8964 ± 0.0076	0.8306 ± 0.007	0.789 ± 0.0067	0.7599 ± 0.0064	0.7565 ± 0.0065
